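1) Cells in 96-well plates. 2) Compound, 48 h, 5 concentrations. 3) Linear interpolation between surrounding doses. 4) Unreached endpoint = highest concentration. GI50: concentration for 50% inhibition of growth. TGI denotes the concentration required for complete inhibition of growth.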
Experiments:
Assay in all cases: DTP human tumour cell line panel, 48 h
HS 578T breast = system: HS 578T breast
SK-MEL-28 melanoma = system: SK-MEL-28 melanoma
NCI-H226 lung = system: NCI-H226 lung
A498 renal = system: A498 renal
HOP-62 NSCLC = system: HOP-62 NSCLC
EKVX NSCLC = system: EKVX NSCLC
UACC-62 melanoma = system: UACC-62 melanoma
CCRF-CEM leukemia = system: CCRF-CEM leukemia
K-562 leukemia = system: K-562 leukemia
KM12 colon = system: KM12 colon
SF-268 CNS = system: SF-268 CNS
T-47D breast = system: T-47D breast
NCI-H522 lung = system: NCI-H522 lung
SW-620 colon = system: SW-620 colon
MDA-MB-435 = system: MDA-MB-435
MOLT-4 leukemia = system: MOLT-4 leukemia
OVCAR-8 ovarian = system: OVCAR-8 ovarian
BT-549 breast = system: BT-549 breast
CAKI-1 renal = system: CAKI-1 renal
SK-MEL-5 melanoma = system: SK-MEL-5 melanoma
ACHN renal = system: ACHN renal
COLO 205 colon = system: COLO 205 colon
TK-10 renal = system: TK-10 renal
NCI/ADR-RES ovarian = system: NCI/ADR-RES ovarian
OVCAR-4 ovarian = system: OVCAR-4 ovarian
IGROV1 ovarian = system: IGROV1 ovarian
DU-145 prostate = system: DU-145 prostate
OVCAR-5 ovarian = system: OVCAR-5 ovarian
HCC-2998 colon = system: HCC-2998 colon
SR leukemia = system: SR leukemia
RPMI-8226 leukemia = system: RPMI-8226 leukemia
A549 NSCLC = system: A549 NSCLC
U251 CNS = system: U251 CNS
HOP-92 NSCLC = system: HOP-92 NSCLC
RXF 393 renal = system: RXF 393 renal
786-0 renal = system: 786-0 renal
OVCAR-3 ovarian = system: OVCAR-3 ovarian
PC-3 prostate = system: PC-3 prostate
NCI-H460 lung = system: NCI-H460 lung
SF-295 CNS = system: SF-295 CNS
SNB-75 CNS = system: SNB-75 CNS
MCF7 breast = system: MCF7 breast
UACC-257 melanoma = system: UACC-257 melanoma
UO-31 renal = system: UO-31 renal
HCT-116 colon = system: HCT-116 colon
MALME-3M melanoma = system: MALME-3M melanoma
MDA-MB-231 breast = system: MDA-MB-231 breast
SF-539 CNS = system: SF-539 CNS
SNB-19 CNS = system: SNB-19 CNS
LOX IMVI melanoma = system: LOX IMVI melanoma
SK-MEL-2 melanoma = system: SK-MEL-2 melanoma
HL-60(TB) leukemia = system: HL-60(TB) leukemia
HT29 colon = system: HT29 colon
HCT-15 colon = system: HCT-15 colon
SK-OV-3 ovarian = system: SK-OV-3 ovarian
SN12C renal = system: SN12C renal
M14 melanoma = system: M14 melanoma

O=C1[C@H]2Cc3c([nH]c4ccccc34)[C@@H](c3ccc(Br)cc3)N2C(=O)CN1C1CCN(CC2CCCCC2)CC1
GI50 (HS 578T breast): 18.4 µM | TGI (HS 578T breast): 45.1 µM | GI50 (SK-MEL-28 melanoma): 16.4 µM | TGI (SK-MEL-28 melanoma): 30.6 µM | GI50 (NCI-H226 lung): 30.4 µM | TGI (NCI-H226 lung): > 100 µM | GI50 (A498 renal): 13.7 µM | TGI (A498 renal): 26.9 µM | GI50 (HOP-62 NSCLC): 16.2 µM | TGI (HOP-62 NSCLC): 34.6 µM | GI50 (EKVX NSCLC): 13.8 µM | TGI (EKVX NSCLC): 27.4 µM | GI50 (UACC-62 melanoma): 16 µM | TGI (UACC-62 melanoma): 29.9 µM | GI50 (CCRF-CEM leukemia): 24.1 µM | TGI (CCRF-CEM leukemia): 56.5 µM | GI50 (K-562 leukemia): 16.5 µM | TGI (K-562 leukemia): 53.1 µM | GI50 (KM12 colon): 17 µM | TGI (KM12 colon): 34 µM | GI50 (SF-268 CNS): 15.3 µM | TGI (SF-268 CNS): 31.9 µM | GI50 (T-47D breast): 13.9 µM | TGI (T-47D breast): > 100 µM | GI50 (NCI-H522 lung): 17.9 µM | TGI (NCI-H522 lung): 39.9 µM | GI50 (SW-620 colon): 16.5 µM | TGI (SW-620 colon): 31.8 µM | GI50 (MDA-MB-435): 16.9 µM | TGI (MDA-MB-435): 31.6 µM | GI50 (MOLT-4 leukemia): 20.4 µM | TGI (MOLT-4 leukemia): 81.6 µM | GI50 (OVCAR-8 ovarian): 22.5 µM | TGI (OVCAR-8 ovarian): 55.5 µM | GI50 (BT-549 breast): 15.5 µM | TGI (BT-549 breast): 29.6 µM | GI50 (CAKI-1 renal): 14.6 µM | TGI (CAKI-1 renal): 28.2 µM | GI50 (SK-MEL-5 melanoma): 16.1 µM | TGI (SK-MEL-5 melanoma): 29.9 µM | GI50 (ACHN renal): 15.3 µM | TGI (ACHN renal): 28.7 µM | GI50 (COLO 205 colon): 14.3 µM | TGI (COLO 205 colon): 30.2 µM | GI50 (TK-10 renal): 17.8 µM | TGI (TK-10 renal): 35.1 µM | GI50 (NCI/ADR-RES ovarian): 16.7 µM | TGI (NCI/ADR-RES ovarian): 34.1 µM | GI50 (OVCAR-4 ovarian): 17.9 µM | TGI (OVCAR-4 ovarian): 37.1 µM | GI50 (IGROV1 ovarian): 13.4 µM | TGI (IGROV1 ovarian): 26.7 µM | GI50 (DU-145 prostate): 17.6 µM | TGI (DU-145 prostate): 33.6 µM | GI50 (OVCAR-5 ovarian): 15.1 µM | TGI (OVCAR-5 ovarian): 28.8 µM | GI50 (HCC-2998 colon): 14.4 µM | TGI (HCC-2998 colon): 28 µM | GI50 (SR leukemia): 16 µM | TGI (SR leukemia): 46.1 µM | GI50 (RPMI-8226 leukemia): 23.4 µM | TGI (RPMI-8226 leukemia): 53.4 µM | GI50 (A549 NSCLC): 18.3 µM | TGI (A549 NSCLC): 39.9 µM | GI50 (U251 CNS): 16.4 µM | TGI (U251 CNS): 34 µM | GI50 (HOP-92 NSCLC): 6.7 µM | TGI (HOP-92 NSCLC): 21.1 µM | GI50 (RXF 393 renal): 11.9 µM | TGI (RXF 393 renal): 24.2 µM | GI50 (786-0 renal): 15.6 µM | TGI (786-0 renal): 29.4 µM | GI50 (OVCAR-3 ovarian): 15.3 µM | TGI (OVCAR-3 ovarian): 29.5 µM | GI50 (PC-3 prostate): 12.4 µM | TGI (PC-3 prostate): 25.5 µM | GI50 (NCI-H460 lung): 18.8 µM | TGI (NCI-H460 lung): 36.1 µM | GI50 (SF-295 CNS): 17.5 µM | TGI (SF-295 CNS): 31.9 µM | GI50 (SNB-75 CNS): 87.1 µM | TGI (SNB-75 CNS): > 100 µM | GI50 (MCF7 breast): 10.1 µM | TGI (MCF7 breast): 22.3 µM | GI50 (UACC-257 melanoma): 20.2 µM | TGI (UACC-257 melanoma): 42.7 µM | GI50 (UO-31 renal): 11.7 µM | TGI (UO-31 renal): 24.2 µM | GI50 (HCT-116 colon): 13.6 µM | TGI (HCT-116 colon): 27.2 µM | GI50 (MALME-3M melanoma): 13.8 µM | TGI (MALME-3M melanoma): 28.3 µM | GI50 (MDA-MB-231 breast): 15.2 µM | TGI (MDA-MB-231 breast): 30.1 µM | GI50 (SF-539 CNS): 15.5 µM | TGI (SF-539 CNS): 29.5 µM | GI50 (SNB-19 CNS): 15.9 µM | TGI (SNB-19 CNS): 31.5 µM | GI50 (LOX IMVI melanoma): 18.6 µM | TGI (LOX IMVI melanoma): 34.3 µM | GI50 (SK-MEL-2 melanoma): 23 µM | TGI (SK-MEL-2 melanoma): 58.7 µM | GI50 (HL-60(TB) leukemia): 16.4 µM | TGI (HL-60(TB) leukemia): 41.8 µM | GI50 (HT29 colon): 14.8 µM | TGI (HT29 colon): 35 µM | GI50 (HCT-15 colon): 16 µM | TGI (HCT-15 colon): 30.8 µM | GI50 (SK-OV-3 ovarian): 21.9 µM | TGI (SK-OV-3 ovarian): 59.3 µM | GI50 (SN12C renal): 15.8 µM | TGI (SN12C renal): 30.9 µM | GI50 (M14 melanoma): 16.9 µM | TGI (M14 melanoma): 32.9 µM
